The subject of data set [1] is Escherichia coli expressing NDM-1 (CLB30005, CLB30016). Format: cell-based. The settings on record: with imipenem 1 μg/ml, 95% inhibition of bacterial growth. The procedure:
(§1) Antibiotic Potentiation Activity: Determination of Synergistic Concentration
(§2) The bacterial strains tested included the clinical strains Escherichia coli expressing NDM-1 (CLB30005, CLB30016), Serratia marcescens expressing IMP-1 (CL5741), and Klebsiella pneumoniae expressing VIM-1 (IHMA599644). Inhibitor activity was measured in the presence and absence of imipenem in a 384-well microplate.
(§3) The clinical strains CLB30016, CL5741 and IHMA599644 were grown on trypticase soy agar containing 5% sheep's blood. The bacteria on agar plates were incubated at 35° C. with humidity overnight. The following day, individual colonies from each clinical strain were picked and resuspended in 5 ml saline to attain an OD600 of 0.14, 0.11, 0.15 and 0.13, for CLB30016, CL5741 and IHMA599644, respectively. These were further diluted 1:100 into 1.1× CAMHB and used to inoculate the test wells as described below.
(§4) Imipenem in 10 mM 3-(N-morpholino)propanesulfonic acid (MOPS, pH 7) was stored in single use aliquots at −80° C. […] On the day of the assay, 4 μl of antibiotic was added to 45 ul of bacteria followed by 1 μl of test compound and mixed by pipetting and with an orbital shaker. The concentration of antibiotic used in the assay was 1 μg/ml. Microplates were covered and incubated at 35° C. for 22 hours to 24 hours. At the end of the incubation, absorbance was determined using a spectrophotometer.

The test system of data set [2] is Pseudomonas aeruginosa PAO1 MB9798 (efflux+, IMP-1). As to conditions: ratio MITC95 PA 9798/MITC95 PA 9799; imipenem at 2 μg/mL. The procedure, abridged:
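Isogenic PAO1 pair (efflux+ MB9798, efflux− MB9799, both IMP-1) tested by microbroth MIC with fixed imipenem and/or ceftazidime, usually at CLSI breakpoint, plus fixed class A/C inhibitor against AmpC. MBL inhibitor titrated; concentration restoring susceptibility recorded and fold difference between strains taken as efflux extent.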

For data set [3], the system named is Serratia marcescens expressing IMP-1 (CL5741). It is filed as cell-based. As to conditions: with imipenem 1 μg/ml; 95% inhibition of bacterial growth. The procedure:
as §1, §2, §3, §4

Like-named read-outs stand apart in the source and are kept apart here.

In the case of `Nc1nc2c(-c3ccc(S(=O)(=O)NC4CCNCC4)c(S(N)(=O)=O)c3-c3nn[nH]n3)cccc2[nH]1` [Example 260, 4-(2-amino-1H-benzo[d]imidazol-4-yl)-N1-(piperidin-4-yl)-3-(1H-tetrazol-5-yl)benzene-1,2-disuffonamide], in data set [1], the “Escherichia coli (NDM-1) MITC95” value is 0.7813 µM. For the same molecule, the Efflux ratio in data set [2] is reported as 1.00.

Turning to `CC[C@@H](CN)NS(=O)(=O)c1ccc(-c2cccc3[nH]c(N)nc23)c(-c2nn[nH]n2)c1S(N)(=O)=O` [Example 264, (S)-4-(2-amino-1H-benzo[d]imidazol-4-yl)-N1-(1-aminobutan-2-yl)-3-(2H-tetrazol-5-yl)benzene-1,2-disulfonamide], in data set [1], the “Escherichia coli (NDM-1) MITC95” value is 0.7813 µM. In data set [2], the Efflux ratio is reported as 4.00. As to `C[C@@H](CCN)NS(=O)(=O)c1ccc(-c2cccc3[nH]c(N)nc23)c(-c2nn[nH]n2)c1S(N)(=O)=O` [Example 267, (S)-4-(2-amino-1H-benzo[d]imidazol-4-yl)-N1-(4-aminobutan-2-yl)-3-(2H-tetrazol-5-yl)benzene-1,2-disulfonamide], the “Escherichia coli (NDM-1) MITC95” value in data set [1] is 0.7813 µM. Besides, the Efflux ratio in data set [2] was 1.00. For `NCCN1CC[C@H](NS(=O)(=O)c2ccc(-c3cccc4[nH]c(N)nc34)c(-c3nn[nH]n3)c2S(N)(=O)=O)C1` [Example 268, (S)-4-(2-amino-1H-benzo[d]imidazol-4-yl)-N1-(1-(2-aminoethyl)pyrrolidin-3-yl)-3-(2H-tetrazol-5-yl)benzene-1,2-disulfonamide] the same measures were 0.7813 µM and 1.00.

For `NCCNS(=O)(=O)c1ccc(-c2cccn3ccnc23)c(-c2nn[nH]n2)c1S(N)(=O)=O` [Example 361, N1-(2-aminoethyl)-4-(imidazo[1,2-a]pyridin-8-yl)-3-(2H-tetrazol-5-yl)benzene-1,2-disulfonamide], in data set [3], the “Serratia marcescens (IMP-1) MITC95” value came out at 0.7813 µM. Also, the Efflux ratio in data set [2] was found to be 1.00. For `NC[C@@H](N)CNS(=O)(=O)c1ccc(-c2cnc3cc[nH]c3c2)c(-c2nn[nH]n2)c1S(N)(=O)=O` [Example 378, (R)-N 1-(2,3-diaminopropyl)-4-(1H-pyrrolo[3,2-b]pyridin-6-yl)-3-(2H-tetrazol-5-yl)benzene-1,2-disulfonamide] the same measures were 1.563 µM and 2.00. For `NCC(CN)NS(=O)(=O)c1ccc(-c2cccn3ccnc23)c(-c2nn[nH]n2)c1S(N)(=O)=O` [Example 386, N1-(1,3-diaminopropan-2-yl)-4-(imidazo[1,2-a]pyridin-8-yl)-3-(2H-tetrazol-5-yl) benzene-1,2-disulfonamide] the same measures were 1.563 µM and 1.00.

As to `C[C@H](CN)NS(=O)(=O)c1ccc(-c2cc(F)cc3[nH]c(N)nc23)c(-c2nn[nH]n2)c1S(N)(=O)=O` [Example 396, (R)-4-(2-amino-6-fluoro-1H-benzo[d]imidazol-4-yl)-N^1-(1-aminopropan-2-yl)-3-(2H-tetrazol-5-yl)benzene-1,2-disulfonamide], the “Escherichia coli (NDM-1) MITC95” value in data set [1] is 0.7813 µM. On the same count and under the same terms, the value for `NC[C@@H](CO)NS(=O)(=O)c1ccc(-c2cccc3[nH]c(N)nc23)c(-c2nnn[nH]2)c1S(N)(=O)=O` [Example 426, (S)-4-(2-Amino-1H-benzo[d]imidazol-4-yl)-N^1-(1-amino-3-hydroxypropan-2-yl)-3-(1H-tetrazol-5-yl)benzene-1,2-disulfonamide] was 0.3906 µM; that for `NCC(CN)NS(=O)(=O)c1ccc(-c2cccc3sc(N)nc23)c(-c2nn[nH]n2)c1S(N)(=O)=O` [Example 436, 4-(2-aminobenzo[d]thiazol-4-yl)-N1-(1,3-diaminopropan-2-yl)-3-(2H-tetrazol-5-yl)benzene-1,2-disulfonamide] was 0.7813 µM; that for `NCC(CN)NS(=O)(=O)c1ccc(-c2ccnc(-c3cnc(N)[nH]3)c2)c(-c2nnn[nH]2)c1S(N)(=O)=O` [Example 437, 4-(2-(2-Amino-1H-imidazol-5-yl)pyridin-4-yl)-N^1-(1,3-diaminopropan-2-yl)-3-(1H-tetrazol-5-yl)benzene-1,2-disulfonamide] was 0.7813 µM. On the same count and under the same terms, the value for `NCCNS(=O)(=O)c1ccc(-c2cccc3[nH]c(C4CNC4)nc23)c(-c2nn[nH]n2)c1S(N)(=O)=O` [Example 443, N1-(2-aminoethyl)-4-(2-(azetidin-3-yl)-1H-benzo[d]imidazol-4-yl)-3-(2H-tetrazol-5-yl)benzene-1,2-disulfonamide] was 0.7813 µM.

For the molecule `NCCNS(=O)(=O)c1ccc(-c2cccc3[nH]c([C@@H]4C[C@@H](O)CN4)nc23)c(-c2nn[nH]n2)c1S(N)(=O)=O` [Example 444, N1-(2-aminoethyl)-4-(2-((2S,4R)-4-hydroxypyrrolidin-2-yl)-1H-benzo[d]imidazol-4-yl)-3-(2H-tetrazol-5-yl)benzene-1,2-disulfonamide], the “Escherichia coli (NDM-1) MITC95” value in data set [1] is 1.563 µM. On the same count and under the same terms, the value for `NCCNS(=O)(=O)c1ccc(-c2cccc3c2CCCN3)c(-c2nn[nH]n2)c1S(N)(=O)=O` [Example 455, N1-(2-Aminoethyl)-4-(1,2,3,4-tetrahydroquinolin-5-yl)-3-(2H-tetrazol-5-yl)benzene-1,2-disulfonamide] was 1.563 µM; that for `NCCNc1cc(-c2ccc(S(=O)(=O)NCCO)c(S(N)(=O)=O)c2-c2nn[nH]n2)ccn1` [Example 457, 4-(2-((2-aminoethyl)amino)pyridin-4-yl)-N1-(2-hydroxyethyl)-3-(2H-tetrazol-5-yl)benzene-1,2-disulfonamide] was 1.563 µM; that for `NCCNc1cc(-c2ccc(S(=O)(=O)N[C@@H]3CCNC3)c(S(N)(=O)=O)c2-c2nn[nH]n2)ccn1` [Example 458, (R)-4-(2-((2-aminoethyl)amino)pyridin-4-yl)-N1-(pyrrolidin-3-yl)-3-(2H-tetrazol-5-yl)benzene-1,2-disulfonamide] was 0.7813 µM. Regarding `NCc1nc2cc(-c3ccc(S(=O)(=O)NC[C@H](O)CN)c(S(N)(=O)=O)c3-c3nn[nH]n3)ccc2[nH]1` [Example 464, (R)—N1-(3-amino-2-hydroxypropyl)-4-(2-(aminomethyl)-1H-benzo[d]imidazole-5-yl)-3-(2H-tetrazol-5-yl)benzene-1,2-disulfonamide], in data set [1], the “Escherichia coli (NDM-1) MITC95” value was found to be 0.7813 µM. Still for that read-out and setting: the value for `NCc1nc2cc(-c3ccc(S(=O)(=O)NC[C@@H](O)CN)c(S(N)(=O)=O)c3-c3nn[nH]n3)ccc2[nH]1` [Example 465, (S)-N1-(3-amino-2-hydroxypropyl)-4-(2-(aminomethyl)-1H-benzo[d]imidazol-5-yl)-3-(2H-tetrazol-5-yl)benzene-1,2-disulfonamide] was 0.7813 µM; that for `NCCNS(=O)(=O)c1ccc(-c2ccc3[nH]c(CN)nc3c2)c(-c2nn[nH]n2)c1S(N)(=O)=O` [Example 466, N1-(2-aminoethyl)-4-(2-(aminomethyl)-1H-benzo[d]imidazol-5-yl)-3-(2H-tetrazol-5-yl)benzene-1,2-disulfonamide] was 0.7813 µM; that for `NCc1nc2cc(-c3ccc(S(=O)(=O)NC[C@@H](O)CN)c(S(N)(=O)=O)c3-c3nn[nH]n3)ccc2s1` [Example 473, (S)-N1-(3-amino-2-hydroxypropyl)-4-(2-(aminomethyl)benzo[d]thiazol-5-yl)-3-(2H-tetrazol-5-yl)benzene-1,2-disulfonamide] was 0.7813 µM. `NCc1nc2cc(-c3ccc(S(=O)(=O)N[C@@H](CN)CO)c(S(N)(=O)=O)c3-c3nn[nH]n3)ccc2[nH]1` [Example 474, (S)-N1-(1-amino-3-hydroxypropan-2-yl)-4-(2-(aminomethyl)-1H-benzo[d]imidazol-5-yl)-3-(2H-tetrazol-5-yl)benzene-1,2-disulfonamide]: in data set [1], the “Escherichia coli (NDM-1) MITC95” value stood at 0.7813 µM. For `NCc1nc2cc(-c3ccc(S(=O)(=O)N[C@@H](CN)CO)c(S(N)(=O)=O)c3-c3nn[nH]n3)ccc2s1` [Example 475, (S)-N1-(1-amino-3-hydroxypropan-2-yl)-4-(2-(aminomethyl)benzo[d]thiazol-5-yl)-3-(2H-tetrazol-5-yl)benzene-1,2-disulfonamide], the “Escherichia coli (NDM-1) MITC95” value in data set [1] was 0.7813 µM. `C[C@@H](CCN)NS(=O)(=O)c1ccc(-c2ccc(N)nc2)c(-c2nn[nH]n2)c1S(N)(=O)=O` [Example 499, (5)-N1-(4-aminobutan-2-yl)-4-(6-aminopyridin-3-yl)-3-(1H-tetrazol-5-yl)benzene-1,2-disulfonamide]: the “Escherichia coli (NDM-1) MITC95” value in data set [1] (CLB30016) is 0.7813 µM.
